Source: ChEMBL document CHEMBL5226311, “Recent Progress on Tubulin Inhibitors with Dual Targeting Capabilities for Cancer Therapy” (J Med Chem, 2021)

Key:
EA.hy 926 = assay: Antiproliferative activity against human EA.hy 926 cells assessed as cell growth inhibition; assay type: functional, cell-based
NCI-H460 [1] = assay: Antitumor activity against human NCI-H460 cells xenografted in mouse assessed as inhibition of tumor growth at 30 mg/kg relative to control; assay type: functional; details: read-out: TGI
NCI-H460 [2] = assay: Antiproliferative activity against human NCI-H460 cells expressing TaxR assessed as cell growth inhibition; assay type: functional, cell-based
NCI-H460 [3] = assay: Antiproliferative activity against human NCI-H460 cells assessed as cell growth inhibition; assay type: functional, cell-based
NCI-H460 [4] = assay: Antitumor activity against human NCI-H460 cells expressing TaxR xenografted in mouse assessed as inhibition of tumor growth at 30 mg/kg relative to control; assay type: functional; details: read-out: TGI
A549 [5] = assay: Antiproliferative activity against human A549 cells assessed as cell growth inhibition; assay type: functional, cell-based
MCF7 [6] = assay: Antiproliferative activity against human MCF7 cells assessed as cell growth inhibition; assay type: functional, cell-based
HCT-116 [7] = assay: Antiproliferative activity against human HCT-116 cells assessed as cell growth inhibition measured after 72 hrs by MTT assay; assay type: functional, cell-based; details: HCT-116, 72 h
HT-29 = assay: Antiproliferative activity against human HT-29 cells assessed as cell growth inhibition measured after 72 hrs by MTT assay; assay type: functional, cell-based; details: HT-29, 72 h
NCI-H460 [8] = assay: Antiproliferative activity against human NCI-H460 cells assessed as cell growth inhibition measured after 72 hrs by MTT assay; assay type: functional, cell-based; details: NCI-H460, 72 h
A549 [9] = assay: Antiproliferative activity against human A549 cells assessed as cell growth inhibition measured after 72 hrs by MTT assay; assay type: functional, cell-based; details: A549, 72 h
A2780S = assay: Antiproliferative activity against human A2780S cells assessed as cell growth inhibition measured after 72 hrs by MTT assay; assay type: functional, cell-based
SK-OV-3 = assay: Antiproliferative activity against human SK-OV-3 cells assessed as cell growth inhibition measured after 72 hrs by MTT assay; assay type: functional, cell-based; details: SK-OV-3, 72 h
MCF7 [10] = assay: Antiproliferative activity against human MCF7 cells assessed as cell growth inhibition measured after 72 hrs by MTT assay; assay type: functional, cell-based; details: MCF7, 72 h
MDA-MB-231 = assay: Antiproliferative activity against human MDA-MB-231 cells assessed as cell growth inhibition measured after 72 hrs by MTT assay; assay type: functional, cell-based; details: MDA-MB-231, 72 h
A-375 = assay: Antiproliferative activity against human A-375 cells assessed as cell growth inhibition measured after 72 hrs by MTT assay; assay type: functional, cell-based; details: A-375, 72 h
HepG2 = assay: Antiproliferative activity against human HepG2 cells assessed as cell growth inhibition measured after 72 hrs by MTT assay; assay type: functional, cell-based; details: HepG2, 72 h
MM1.S = assay: Antiproliferative activity against human MM1.S cells assessed as cell growth inhibition measured after 72 hrs by MTT assay; assay type: functional, cell-based
RPMI-8226 = assay: Antiproliferative activity against human RPMI-8226 cells assessed as cell growth inhibition measured after 72 hrs by MTT assay; assay type: functional, cell-based; details: RPMI-8226, 72 h
[11] = Antiproliferative activity against human ARD cells assessed as cell growth inhibition measured after 72 hrs by MTT assay; assay type: functional, cell-based
U-266 = assay: Antiproliferative activity against human U-266 cells assessed as cell growth inhibition measured after 72 hrs by MTT assay; assay type: functional, cell-based; details: U-266, 72 h
Ramos = assay: Antiproliferative activity against human Ramos cells assessed as cell growth inhibition measured after 72 hrs by MTT assay; assay type: functional, cell-based
[12] = Antiproliferative activity against human HBL1 cells assessed as cell growth inhibition measured after 72 hrs by MTT assay; assay type: functional, cell-based; details: HBL1, 72 h
JeKo-1 = assay: Antiproliferative activity against human JeKo-1 cells assessed as cell growth inhibition measured after 72 hrs by MTT assay; assay type: functional, cell-based; details: JeKo-1, 72 h
[13] = Antiproliferative activity against human LAMA84-s cells assessed as cell growth inhibition measured after 72 hrs by MTT assay; assay type: functional, cell-based
K562 [14] = assay: Antiproliferative activity against human K562 cells assessed as cell growth inhibition measured after 72 hrs by MTT assay; assay type: functional, cell-based; details: K562, 72 h
MV4-11 = assay: Antiproliferative activity against human MV4-11 cells assessed as cell growth inhibition measured after 72 hrs by MTT assay; assay type: functional, cell-based; details: MV4-11, 72 h
KB = assay: Antiproliferative activity against human KB cells assessed as cell growth inhibition; assay type: functional, cell-based
Tubulin [15] = assay: Inhibition of tubulin depolymerization (unknown origin); assay type: protein-complex assay, Homo sapiens
HONE1 cell line = assay: Antiproliferative activity against human HONE1 cell line assessed as cell growth inhibition; assay type: functional, cell-based
HCT-116 [16] = assay: Antiproliferative activity against human HCT-116 cells assessed as cell growth inhibition; assay type: functional, cell-based
Tubulin [17] = assay: Inhibition of tubulin polymerization (unknown origin); assay type: protein-complex assay, Homo sapiens
HL-60(TB) = assay: Antiproliferative activity against human HL-60(TB) cells assessed as cell growth inhibition; assay type: functional
K562 [18] = assay: Antiproliferative activity against human K562 cells assessed as cell growth inhibition; assay type: functional
CCRF-CEM = assay: Antiproliferative activity against human CCRF-CEM cells assessed as cell growth inhibition; assay type: functional
NCI-H522 = assay: Antiproliferative activity against human NCI-H522 cells assessed as cell growth inhibition; assay type: functional
NCI-H322M = assay: Antiproliferative activity against human NCI-H322M cells assessed as cell growth inhibition; assay type: functional
KM12 = assay: Antiproliferative activity against human KM12 cells assessed as cell growth inhibition; assay type: functional
SW-620 = assay: Antiproliferative activity against human SW-620 cells assessed as cell growth inhibition; assay type: functional
HCT-15 = assay: Antiproliferative activity against human HCT-15 cells assessed as cell growth inhibition; assay type: functional
M14 = assay: Antiproliferative activity against human M14 cells assessed as cell growth inhibition; assay type: functional
MDA-MB-435 = assay: Antiproliferative activity against human MDA-MB-435 cells assessed as cell growth inhibition; assay type: functional
LOX IMVI = assay: Antiproliferative activity against human LOX IMVI cells assessed as cell growth inhibition; assay type: functional
OVCAR-3 = assay: Antiproliferative activity against human OVCAR-3 cells assessed as cell growth inhibition; assay type: functional
NCI/ADR-RES = assay: Antiproliferative activity against human NCI/ADR-RES cells assessed as cell growth inhibition; assay type: functional
OVCAR-8 = assay: Antiproliferative activity against human OVCAR-8 cells assessed as cell growth inhibition; assay type: functional
A498 = assay: Antiproliferative activity against human A498 cells assessed as cell growth inhibition; assay type: functional
RXF 393 = assay: Antiproliferative activity against human RXF 393 cells assessed as cell growth inhibition; assay type: functional
SN12C = assay: Antiproliferative activity against human SN12C cells assessed as cell growth inhibition; assay type: functional
PC-3 = assay: Antiproliferative activity against human PC-3 cells assessed as cell growth inhibition; assay type: functional
DU-145 = assay: Antiproliferative activity against human DU-145 cells assessed as cell growth inhibition; assay type: functional
SF-539 = assay: Antiproliferative activity against human SF-539 cells assessed as cell growth inhibition; assay type: functional
SNB-75 = assay: Antiproliferative activity against human SNB-75 cells assessed as cell growth inhibition; assay type: functional
SF-295 = assay: Antiproliferative activity against human SF-295 cells assessed as cell growth inhibition; assay type: functional
Hs-578T = assay: Antiproliferative activity against human Hs-578T cells assessed as cell growth inhibition; assay type: functional
BT-549 = assay: Antiproliferative activity against human BT-549 cells assessed as cell growth inhibition; assay type: functional

COc1ccc(/C=C\c2cc(OC)c(OC)c(OC)c2)cc1O [COMBRETASTATIN A4] gave an IC50 (EA.hy 926) of 11 nM.
CN(C)c1ccc(/C=C2/SC(=Nc3ccccc3Cl)NC2=O)cc1 showed an inhibition in vivo at 30 mg/kg (NCI-H460 [1]) of 62.4%, an IC50 (NCI-H460 [2]) of 800 nM and an IC50 (NCI-H460 [3]) of 700 nM. It also gave an inhibition in vivo at 30 mg/kg (NCI-H460 [4]) of 60.4%.
Work on COC(=O)NCCc1c(C(=O)c2ccccc2[N+](=O)[O-])[nH]c2ccccc12 yielded an IC50 (A549 [5]) of 740 nM and an IC50 (MCF7 [6]) of 1590 nM.
With COc1ccc(-c2ocnc2-c2cc(Br)c(OC)c(OC)c2)cc1OCCCC(=O)NO the IC50 (EA.hy 926) was 18 nM.
COc1ccc(N(C)c2nc(C)nc3ccccc23)cc1OCCCC(=O)NO showed an IC50 (HCT-116 [7]) of 31 nM, an IC50 (HT-29) of 31 nM and an IC50 (NCI-H460 [8]) of 31 nM. The IC50 (A549 [9]) was 31 nM, the IC50 (A2780S) was 31 nM and the IC50 (SK-OV-3) was 31 nM. For the same molecule, the IC50 (MCF7 [10]) was 31 nM, the IC50 (MDA-MB-231) was 31 nM and the IC50 (A-375) was 31 nM. The IC50 (HepG2) was 31 nM, the IC50 (MM1.S) was 31 nM and the IC50 (RPMI-8226) was 31 nM. For the same molecule, the IC50 [11] was 31 nM, the IC50 (U-266) was 31 nM and the IC50 (Ramos) was 31 nM. The IC50 [12] was 31 nM, the IC50 (JeKo-1) was 31 nM and the IC50 [13] was 31 nM. For the same molecule, the IC50 (K562 [14]) was 31 nM and the IC50 (MV4-11) was 31 nM.
COc1cc(C(=O)c2ccc3c(n2)C(=O)C(N2CCCC2)=CC3=O)cc(OC)c1OC gave an IC50 (KB) of 70 nM, an IC50 (Tubulin [15]) of 5.9 µM and an IC50 (HONE1 cell line) of 70 nM. The IC50 (HCT-116 [16]) was 70 nM.
In the case of COc1ccc(C(=O)c2cc(C)c(OC)c(C)c2)cc1OC(=O)CCl, the IC50 (Tubulin [17]) is reported as 1300 nM, the GI50 (A549 [5]) is reported as < 10 nM and the GI50 (MCF7 [6]) is reported as < 10 nM. The GI50 (HL-60(TB)) was < 10 nM, the GI50 (K562 [18]) was < 10 nM and the GI50 (CCRF-CEM) was < 10 nM. For the same molecule, the GI50 (NCI-H522) was < 10 nM, the GI50 (NCI-H322M) was < 10 nM and the GI50 (KM12) was < 10 nM. The GI50 (SW-620) was < 10 nM, the GI50 (HCT-15) was < 10 nM and the GI50 (M14) was < 10 nM. For the same molecule, the GI50 (MDA-MB-435) was < 10 nM, the GI50 (LOX IMVI) was < 10 nM and the GI50 (OVCAR-3) was < 10 nM. For the same molecule, the GI50 (NCI/ADR-RES) was < 10 nM, the GI50 (OVCAR-8) was < 10 nM and the GI50 (A498) was < 10 nM. The GI50 (RXF 393) was < 10 nM, the GI50 (SN12C) was < 10 nM and the GI50 (PC-3) was < 10 nM. The GI50 (DU-145) was < 10 nM, the GI50 (SF-539) was < 10 nM and the GI50 (SNB-75) was < 10 nM. For the same molecule, the GI50 (SF-295) was < 10 nM, the GI50 (Hs-578T) was < 10 nM and the GI50 (BT-549) was < 10 nM.
CC(=O)O[C@H]1C(=O)[C@@]2(C)[C@H]([C@H](OC(=O)c3ccccc3)[C@]3(O)C[C@H](OC(=O)[C@H](O)[C@@H](NC(=O)c4ccccc4)c4ccccc4)C(C)=C1C3(C)C)[C@]1(OC(C)=O)CO[C@@H]1C[C@@H]2O [PACLITAXEL] gave an inhibition in vivo at 30 mg/kg (NCI-H460 [4]) of 40%.
